According to article PMC8397297 (ACS Chemical Neuroscience, 2021):

Tests used:
mGAT3 = biological target: T1, mGAT3 (Mus musculus, UniProt P31649); assay: [3H]GABA uptake assay in HEK-293 cells stably expressing mGAT3; type: cell-based; details: for IC50: [3H]GABA uptake, read-out: pIC50 ± SEM mGAT3 (converted)
T1 construct: expressed in transfected cells; host or cells: HEK-293
T1 sequence (P31649 1-602): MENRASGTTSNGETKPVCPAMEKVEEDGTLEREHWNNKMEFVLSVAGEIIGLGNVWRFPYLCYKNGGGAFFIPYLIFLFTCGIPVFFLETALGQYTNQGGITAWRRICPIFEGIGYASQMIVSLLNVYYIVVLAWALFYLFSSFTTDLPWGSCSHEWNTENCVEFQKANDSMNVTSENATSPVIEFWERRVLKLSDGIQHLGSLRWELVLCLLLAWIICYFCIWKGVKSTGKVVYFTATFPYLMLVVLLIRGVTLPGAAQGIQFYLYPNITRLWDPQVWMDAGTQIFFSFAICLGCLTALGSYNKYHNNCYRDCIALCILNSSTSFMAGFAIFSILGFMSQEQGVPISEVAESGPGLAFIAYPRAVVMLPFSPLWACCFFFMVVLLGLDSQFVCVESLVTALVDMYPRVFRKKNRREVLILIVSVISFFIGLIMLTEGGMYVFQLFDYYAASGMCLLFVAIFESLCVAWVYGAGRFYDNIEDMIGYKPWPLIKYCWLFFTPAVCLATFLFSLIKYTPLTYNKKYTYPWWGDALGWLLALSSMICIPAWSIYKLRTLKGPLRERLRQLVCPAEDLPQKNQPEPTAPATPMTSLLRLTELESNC

mGAT1 [1] = biological target: T2, mGAT1 (Mus musculus, UniProt P31648); assay: [3H]GABA uptake assay in HEK-293 cells stably expressing mGAT1; type: cell-based; details: for IC50: [3H]GABA uptake, read-out: pIC50 ± SEM mGAT1 (converted); for remaining [3H]GABA uptake mGAT1: in the presence of 100 μM inhibitor
T2 construct: expressed in transfected cells; host or cells: HEK-293

mGAT2 = biological target: T3, mGAT2 (Mus musculus, UniProt P31651); assay: [3H]GABA uptake assay in HEK-293 cells stably expressing mGAT2; type: cell-based; details: for IC50: [3H]GABA uptake, read-out: pIC50 ± SEM mGAT2 (converted)
T3 construct: expressed in transfected cells; host or cells: HEK-293
T3 sequence (P31651 1-614): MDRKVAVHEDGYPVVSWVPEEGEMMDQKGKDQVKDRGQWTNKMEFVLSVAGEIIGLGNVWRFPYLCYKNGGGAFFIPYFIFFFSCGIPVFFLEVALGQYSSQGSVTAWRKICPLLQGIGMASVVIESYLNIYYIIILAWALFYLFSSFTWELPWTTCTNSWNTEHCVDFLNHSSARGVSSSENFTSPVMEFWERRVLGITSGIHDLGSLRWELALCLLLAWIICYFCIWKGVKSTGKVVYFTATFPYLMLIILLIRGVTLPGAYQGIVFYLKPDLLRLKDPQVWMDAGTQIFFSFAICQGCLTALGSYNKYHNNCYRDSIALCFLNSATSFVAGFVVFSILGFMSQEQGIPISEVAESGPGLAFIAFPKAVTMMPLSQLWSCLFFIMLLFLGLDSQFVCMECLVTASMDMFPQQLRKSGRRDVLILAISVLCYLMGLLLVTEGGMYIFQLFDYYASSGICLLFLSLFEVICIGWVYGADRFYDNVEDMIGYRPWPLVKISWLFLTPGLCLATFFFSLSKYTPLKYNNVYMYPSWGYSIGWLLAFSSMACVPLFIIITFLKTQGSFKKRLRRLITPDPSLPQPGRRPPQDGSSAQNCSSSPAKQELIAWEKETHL

mGAT4 = biological target: T4, mGAT4 (Mus musculus, UniProt P31650); assay: [3H]GABA uptake assay in HEK-293 cells stably expressing mGAT4; type: cell-based; details: for IC50: [3H]GABA uptake, read-out: pIC50 ± SEM mGAT4 (converted)
T4 construct: expressed in transfected cells; host or cells: HEK-293
T4 sequence (P31650 1-627): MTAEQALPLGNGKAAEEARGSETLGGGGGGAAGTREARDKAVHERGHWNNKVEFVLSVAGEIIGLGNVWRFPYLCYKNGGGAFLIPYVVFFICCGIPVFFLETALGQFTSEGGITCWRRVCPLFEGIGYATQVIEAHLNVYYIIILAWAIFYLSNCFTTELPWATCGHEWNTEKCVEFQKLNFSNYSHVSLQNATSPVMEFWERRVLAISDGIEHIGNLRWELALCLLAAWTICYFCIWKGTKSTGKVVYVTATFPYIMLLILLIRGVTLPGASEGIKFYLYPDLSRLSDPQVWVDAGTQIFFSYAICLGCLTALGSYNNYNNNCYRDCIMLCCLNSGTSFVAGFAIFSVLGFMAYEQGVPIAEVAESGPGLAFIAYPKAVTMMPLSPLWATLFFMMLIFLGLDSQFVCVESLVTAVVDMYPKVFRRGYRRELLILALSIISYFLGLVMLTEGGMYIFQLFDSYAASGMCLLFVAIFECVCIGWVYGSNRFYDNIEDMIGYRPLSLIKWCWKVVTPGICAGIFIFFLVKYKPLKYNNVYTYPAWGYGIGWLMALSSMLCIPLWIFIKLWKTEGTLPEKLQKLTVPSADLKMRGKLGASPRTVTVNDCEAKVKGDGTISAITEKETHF

mGAT1 [2] = biological target: T2, mGAT1; assay: competitive MS binding assay with NO711 as unlabeled marker (LC-ESI-MS/MS); details: for remaining NO711 binding mGAT1: in the presence of 100 μM inhibitor
Experimental: Specific binding affinity toward mGAT1 was determined via a competitive mass spectrometry (MS) binding assay quantified by liquid chromatography–electrospray ionization tandem mass spectrometry (LC–ESI-MS/MS) with NO711 as an unlabeled marker.[50]
MS binding assays for mGAT1 were performed as described earlier.[50] Inhibition of mGAT1 binding by the synthesized compounds was determined in MS binding assays at a screening concentration of 100 μM and analyzed by LC–ESI-MS/MS.

[3] = in the presence of 100 μM inhibitor

| Structure (SMILES) | IC50 (mGAT3) [µM] | IC50 (mGAT1 [1]) [µM] | IC50 (mGAT2) [µM] | IC50 (mGAT4) [µM] | remaining NO711 binding mGAT1 (mGAT1 [2]) | remaining [3H]GABA uptake mGAT3 (mGAT3; [3]) | remaining [3H]GABA uptake mGAT1 (mGAT1 [1]) | remaining [3H]GABA uptake mGAT2 (mGAT2; [3]) | remaining [3H]GABA uptake mGAT4 (mGAT4; [3]) | Ki (mGAT1 [2]; MS binding assay, read-out: pKi ± SEM mGAT1 (converted)) [µM] |
| --- | --- | --- | --- | --- | --- | --- | --- | --- | --- | --- |
| CC(O)CC(C(=O)NCc1ccccc1)N1CCC(=C2c3ccccc3CCc3ccccc32)CC1 (centres unmarked) [2RS,4SR-43a, N-Benzyl-2-(4-(10,11-dihydro-5H-dibenzo[a,d][7]annulen-5-ylidene)piperidin-1-yl)-4-hydroxypentanamide] | 28.2 | 19.5 | 58.9 | 15.8 | 100 μM: 73% |  |  |  |  |  |
| CC(O)CC(C(=O)NCc1ccc(F)cc1)N1CCC(=C2c3ccccc3CCc3ccccc32)CC1 (centres unmarked) [2RS,4SR-43b, 2-(4-(10,11-Dihydro-5H-dibenzo[a,d][7]annulen-5-ylidene)piperidin-1-yl)-N-(4-fluorobenzyl)-4-hydroxypentanamide] |  |  |  |  | 100 μM: 102% | 100 μM: 87% | 100 μM: 54% | 100 μM: 80% | 100 μM: 62% |  |
| CC(O)CC(C(=O)NCc1ccccc1)N(C)CCON=C(c1ccccc1)c1ccccc1 (centres unmarked) [2RS,4SR-45, N-Benzyl-2-[(2-{[(diphenylmethylidene)amino]oxy}ethyl)(methyl)amino]-4-hydroxypentanamide] | 18.2 | 57.5 | 31.6 | 39.8 | 100 μM: 86% |  |  |  |  |  |
| CN(CCON=C(c1ccccc1)c1ccccc1)C(CCO)C(=O)NCc1ccccc1 (centres unmarked) [Compound 47a, N-Benzyl-2-[(2-{[(diphenylmethylidene)amino]oxy}ethyl)(methyl)amino]-4-hydroxybutanamide] | 18.2 | 16.6 | 36.3 | 14.8 | 100 μM: 87% |  |  |  |  |  |
| CN(CCON=C(c1ccccc1)c1ccccc1)C(CCO)C(=O)NCc1ccccc1Cl (centres unmarked) [Compound 47b, N-[(2-Chlorophenyl)methyl]-2-[(2-{[(diphenylmethylidene)amino]oxy}ethyl)(methyl)amino]-4-hydroxybutanamide] | 9.12 | 31.6 | 13.8 | 18.6 | 100 μM: 86% |  |  |  |  |  |
| CN(CCON=C(c1ccccc1)c1ccccc1)C(CCO)C(=O)NCc1ccc(Cl)c(Cl)c1 (centres unmarked) [Compound 47c, N-[(3,4-Dichlorophenyl)methyl]-2-[(2-{[(diphenylmethylidene)amino]oxy}ethyl)(methyl)amino]-4-hydroxybutanamide] | 11 | 21.9 | 10.2 | 7.08 | 100 μM: 82% |  |  |  |  |  |
| CN(CCON=C(c1ccccc1)c1ccccc1)C(CCN)C(=O)NCc1ccc(Cl)c(Cl)c1 (centres unmarked) [Compound 50b, 4-Amino-N-[(3,4-dichlorophenyl)methyl]-2-[(2-{[(diphenylmethylidene)amino]oxy}ethyl)(methyl)amino]butanamide] | 4.79 | 12.3 | 4.9 | 4.9 |  |  |  |  |  | 33.1 |
| CC(=O)NCCC(C(=O)NCc1ccccc1Cl)N(C)CCON=C(c1ccccc1)c1ccccc1 (centres unmarked) [Compound 51a, N-[(2-Chlorophenyl)methyl]-2-[(2-{[(diphenylmethylidene)amino]oxy}ethyl)(methyl)amino]-4-acetamidobutanamide] | 9.33 | 18.2 | 13.2 | 12.6 | 100 μM: 74% |  |  |  |  |  |
| CC(=O)NCCC(C(=O)NCc1ccc(Cl)c(Cl)c1)N(C)CCON=C(c1ccccc1)c1ccccc1 (centres unmarked) [Compound 51b, N-[(3,4-Dichlorophenyl)methyl]-2-[(2-{[(diphenylmethylidene)amino]oxy}ethyl)(methyl)amino]-4-acetamidobutanamide] | 6.76 | 11.7 | 12 | 11.2 | 100 μM: 72% |  |  |  |  |  |
| Cc1ccsc1C(=C1CCN(C(CO)C(=O)NCc2ccccc2)CC1)c1sccc1C (centres unmarked) [Compound 54a, N-Benzyl-2-{4-[bis(3-methylthiophen-2-yl)methylidene]piperidin-1-yl}-3-hydroxypropanamide] | 16.2 | 15.1 | 16.6 | 44.7 | 100 μM: 86% |  |  |  |  |  |
| Cc1ccsc1C(=C1CCN(C(CO)C(=O)NCc2ccccc2Cl)CC1)c1sccc1C (centres unmarked) [Compound 54b, 2-{4-[Bis(3-methylthiophen-2-yl)methylidene]piperidin-1-yl}-N-[(2-chlorophenyl)methyl]-3-hydroxypropanamide] | 63.1 |  | 43.7 | 95.5 | 100 μM: 100% |  | 100 μM: 53% |  |  |  |
| Cc1ccsc1C(=C1CCN(C(CO)C(=O)NCc2ccc(F)cc2)CC1)c1sccc1C (centres unmarked) [Compound 54c, 2-{4-[Bis(3-methylthiophen-2-yl)methylidene]piperidin-1-yl}-N-[(4-fluorophenyl)methyl]-3-hydroxypropanamide] | 16.2 | 17 | 13.8 | 28.8 | 100 μM: 96% |  |  |  |  |  |
| CN(CCC=C1c2ccccc2C=Cc2ccccc21)C(CO)C(=O)NCc1ccccc1 (centres unmarked) [Compound 55a, 2-((3-(5H-Dibenzo[a,d][7]annulen-5-ylidene)propyl)(methyl)amino)-N-benzyl-3-hydroxypropanamide] | 15.8 | 17.4 | 26.3 | 8.32 | 100 μM: 83% |  |  |  |  |  |
| CN(CCC=C1c2ccccc2C=Cc2ccccc21)C(CO)C(=O)NCc1ccccc1Cl (centres unmarked) [Compound 55b, 2-((3-(5H-Dibenzo[a,d][7]annulen-5-ylidene)propyl)(methyl)amino)-N-(2-chlorobenzyl)-3-hydroxypropanamide] | 10.7 | 25.7 | 15.8 | 9.55 | 100 μM: 65% |  |  |  |  |  |
| CN(CCC=C1c2ccccc2C=Cc2ccccc21)C(CO)C(=O)NCc1ccc(Cl)cc1 (centres unmarked) [Compound 55c, 2-((3-(5H-Dibenzo[a,d][7]annulen-5-ylidene)propyl)(methyl)amino)-N-(4-chlorobenzyl)-3-hydroxypropanamide] | 15.1 | 28.8 | 60.3 | 16.6 | 100 μM: 49% |  |  |  |  |  |
| CN(CCC=C1c2ccccc2C=Cc2ccccc21)C(CO)C(=O)NCc1ccc(F)cc1 (centres unmarked) [Compound 55d] | 10.5 | 26.3 | 20.4 | 17 | 100 μM: 90% |  |  |  |  |  |
